The results in this text go back to the supplement of paper PMC10307832.

Test in all cases: relative viability (nuclei count vs DMSO), 5 days (fraction); higher = more cells survive
Compound in assay [1]: CCOC1=CC=CC=C1N=NC2=C(NN(C2=O)C3=NC(=CS3)C4=CC=CC=C4)C [BAM7] + CCNC(=O)c1noc(-c2cc(C(C)C)c(O)cc2O)c1-c1ccc(CN2CCOCC2)cc1 [Luminespib] (partner 0.01 µM)
A digest of the protocol:
(§1)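 Relative viability divides the nuclei count in treated wells by that in vehicle wells. Lung cancer cell lines were seeded in 1536-well plates, dosed by pin tool the next day, and fixed and stained after 5 days in one step with final 0.05% Triton X-100, 1% formaldehyde and 1 ug/ml Hoechst. Dosing was a single drug or a fixed anchor-drug dose plus five library-drug doses (not always all listed) in √10 steps, and values are medians of duplicate plates imaged at 4×.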

Compound in assay [2]: CCn1c(-c2nonc2N)nc2c(C#CC(C)(C)O)ncc(OC[C@H]3CCCNC3)c21 + C[C@]1(O)C[C@@H](c2nc(-c3ccc4ccc(-c5ccccc5)nc4c3)c3c(N)nccn32)C1 [Linsitinib] (partner 1 µM)
A digest of the protocol:
as §1

Compound in assay [3]: CCn1c(-c2nonc2N)nc2c(C#CC(C)(C)O)ncc(OC[C@H]3CCCNC3)c21 + Nc1ncn([C@H]2C[C@H](O)[C@@H](CO)O2)c(=O)n1 [Decitabine] (partner 2 µM)
The essentials:
as §1

Compound in assay [4]: CCOC1=CC=CC=C1N=NC2=C(NN(C2=O)C3=NC(=CS3)C4=CC=CC=C4)C [BAM7] + O=C(c1cc(Cc2n[nH]c(=O)c3ccccc23)ccc1F)N1CCN(C(=O)C2CC2)CC1 [Olaparib] (partner 8 µM)
The essentials:
as §1

For the cell line LK-2, the relative viability in assay [1] (first compound 0.5 µM) was determined as 0.221; in assay [1] (first compound 5 µM), 0.172; in assay [1] (first compound 15.81 µM), 0.228; in assay [1] (first compound 50 µM), 0.191; in assay [2] (first compound 0.01 µM), 0.7; in assay [2] (first compound 0.03162 µM), 0.715. The relative viability in assay [2] (first compound 0.1 µM) is 0.422; in assay [2] (first compound 0.3162 µM) it was 0.746; in assay [2] (first compound 1 µM), 0.559; in assay [3] (first compound 0.01 µM) it was 0.267; in assay [3] (first compound 0.03162 µM), 0.302; in assay [3] (first compound 0.1 µM), 0.294. The relative viability in assay [3] (first compound 0.3162 µM) came to 0.312; in assay [3] (first compound 1 µM) it was 0.307; in assay [4] (first compound 0.5 µM), 0.885; in assay [4] (first compound 5 µM) it was 0.891; in assay [4] (first compound 15.81 µM) it was 0.918; in assay [4] (first compound 50 µM), 0.666.
Take LOU-NH91: the relative viability in assay [1] (first compound 0.5 µM) turned out to be 0.38; in assay [1] (first compound 5 µM), 0.336; in assay [1] (first compound 15.81 µM), 0.332; in assay [1] (first compound 50 µM), 0.347; in assay [2] (first compound 0.01 µM), 0.953; in assay [2] (first compound 0.03162 µM) it was 0.987. In addition, the relative viability in assay [2] (first compound 0.1 µM) is 0.963; in assay [2] (first compound 0.3162 µM), 0.88; in assay [2] (first compound 1 µM), 0.886; in assay [3] (first compound 0.01 µM), 0.821; in assay [3] (first compound 0.03162 µM) it was 0.788; in assay [3] (first compound 0.1 µM) it was 0.891. The relative viability in assay [3] (first compound 0.3162 µM) was determined as 0.73; in assay [3] (first compound 1 µM) it was 0.779; in assay [4] (first compound 0.5 µM), 0.949; in assay [4] (first compound 5 µM) it was 0.955; in assay [4] (first compound 15.81 µM), 0.894; in assay [4] (first compound 50 µM) it was 0.893.
On to LU99A, for which the relative viability in assay [1] (first compound 0.5 µM) is 0.251; in assay [1] (first compound 5 µM), 0.316; in assay [1] (first compound 15.81 µM), 0.207; in assay [1] (first compound 50 µM), 0.247; in assay [2] (first compound 0.01 µM), 0.473; in assay [2] (first compound 0.03162 µM), 0.524. Moreover, the relative viability in assay [2] (first compound 0.1 µM) came to 0.551; in assay [2] (first compound 0.3162 µM), 0.579; in assay [2] (first compound 1 µM), 0.548; in assay [3] (first compound 0.01 µM), 0.884; in assay [3] (first compound 0.03162 µM), 0.971; in assay [3] (first compound 0.1 µM), 0.866. In addition, the relative viability in assay [3] (first compound 0.3162 µM) stood at 0.826; in assay [3] (first compound 1 µM), 0.883; in assay [4] (first compound 0.5 µM), 0.272; in assay [4] (first compound 5 µM) it was 0.257; in assay [4] (first compound 15.81 µM), 0.312; in assay [4] (first compound 50 µM), 0.254.
On to LXF-289, for which the relative viability was found to be 0.756 in assay [1] (first compound 0.5 µM); 0.686 in assay [1] (first compound 5 µM); 0.628 in assay [1] (first compound 15.81 µM); 0.665 in assay [1] (first compound 50 µM); 0.971 in assay [2] (first compound 0.01 µM); 0.945 in assay [2] (first compound 0.03162 µM). Also, the relative viability is 0.96 in assay [2] (first compound 0.1 µM); 0.882 in assay [2] (first compound 0.3162 µM); 0.951 in assay [2] (first compound 1 µM); 0.42 in assay [3] (first compound 0.01 µM); 0.369 in assay [3] (first compound 0.03162 µM); 0.352 in assay [3] (first compound 0.1 µM). Also, the relative viability in assay [3] (first compound 0.3162 µM) came out at 0.35; in assay [3] (first compound 1 µM), 0.364; in assay [4] (first compound 0.5 µM), 1.17; in assay [4] (first compound 5 µM), 1.05; in assay [4] (first compound 15.81 µM), 1.02; in assay [4] (first compound 50 µM), 1.09.
For NCI-H23, the relative viability is 0.218 in assay [1] (first compound 0.5 µM); 0.249 in assay [1] (first compound 5 µM); 0.225 in assay [1] (first compound 15.81 µM); 0.206 in assay [1] (first compound 50 µM); 0.542 in assay [2] (first compound 0.01 µM); 0.722 in assay [2] (first compound 0.03162 µM). Besides, the relative viability in assay [2] (first compound 0.1 µM) is 0.619; in assay [2] (first compound 0.3162 µM) it was 0.491; in assay [2] (first compound 1 µM) it was 0.611; in assay [3] (first compound 0.01 µM), 0.287; in assay [3] (first compound 0.03162 µM) it was 0.332; in assay [3] (first compound 0.1 µM) it was 0.307. The relative viability was found to be 0.27 in assay [3] (first compound 0.3162 µM); 0.302 in assay [3] (first compound 1 µM); 0.374 in assay [4] (first compound 0.5 µM); 0.271 in assay [4] (first compound 5 µM); 0.258 in assay [4] (first compound 15.81 µM); 0.291 in assay [4] (first compound 50 µM).
With NCI-H322M, the relative viability was determined as 0.876 in assay [1] (first compound 0.5 µM); 0.966 in assay [1] (first compound 5 µM); 0.903 in assay [1] (first compound 15.81 µM); 0.93 in assay [1] (first compound 50 µM); 0.976 in assay [2] (first compound 0.01 µM); 0.988 in assay [2] (first compound 0.03162 µM). Further, the relative viability in assay [2] (first compound 0.1 µM) was found to be 0.942; in assay [2] (first compound 0.3162 µM) it was 0.89; in assay [2] (first compound 1 µM), 0.909; in assay [3] (first compound 0.01 µM), 0.785; in assay [3] (first compound 0.03162 µM), 0.721; in assay [3] (first compound 0.1 µM), 0.617. Also, the relative viability in assay [3] (first compound 0.3162 µM) worked out at 0.593; in assay [3] (first compound 1 µM) it was 0.575; in assay [4] (first compound 0.5 µM), 0.762; in assay [4] (first compound 5 µM), 0.714; in assay [4] (first compound 15.81 µM), 0.654; in assay [4] (first compound 50 µM) it was 0.641.
In the case of NCI-H358, the relative viability in assay [1] (first compound 0.5 µM) was found to be 0.382; in assay [1] (first compound 5 µM), 0.283; in assay [1] (first compound 15.81 µM), 0.376; in assay [1] (first compound 50 µM), 0.49; in assay [2] (first compound 0.01 µM), 0.812; in assay [2] (first compound 0.03162 µM) it was 0.877. Moreover, the relative viability in assay [2] (first compound 0.1 µM) was 0.667; in assay [2] (first compound 0.3162 µM), 0.631; in assay [2] (first compound 1 µM) it was 0.562; in assay [3] (first compound 0.01 µM), 0.234; in assay [3] (first compound 0.03162 µM) it was 0.191; in assay [3] (first compound 0.1 µM) it was 0.221. The relative viability in assay [3] (first compound 0.3162 µM) was 0.207; in assay [3] (first compound 1 µM) it was 0.201; in assay [4] (first compound 5 µM), 0.535; in assay [4] (first compound 15.81 µM), 0.547; in assay [4] (first compound 50 µM) it was 0.608.
NCI-H441: the relative viability in assay [1] (first compound 0.5 µM) was determined as 0.411; in assay [1] (first compound 5 µM) it was 0.326; in assay [1] (first compound 15.81 µM), 0.381; in assay [1] (first compound 50 µM), 0.351; in assay [2] (first compound 0.01 µM), 0.592; in assay [2] (first compound 0.03162 µM) it was 0.556. In addition, the relative viability worked out at 0.67 in assay [2] (first compound 0.1 µM); 0.592 in assay [2] (first compound 0.3162 µM); 0.657 in assay [2] (first compound 1 µM); 0.226 in assay [3] (first compound 0.01 µM); 0.226 in assay [3] (first compound 0.03162 µM); 0.271 in assay [3] (first compound 0.1 µM). In addition, the relative viability came to 0.197 in assay [3] (first compound 0.3162 µM); 0.29 in assay [3] (first compound 1 µM); 0.76 in assay [4] (first compound 0.5 µM); 0.523 in assay [4] (first compound 5 µM); 0.561 in assay [4] (first compound 15.81 µM); 0.574 in assay [4] (first compound 50 µM).
